The values that follow come from patent US9353075B2, “Disubstituted beta-lactones as inhibitors of N-acylethanolamine acid amidase (NAAA)” (The Regents of the University of California, priority 2011, dated 2016).

Data set [1] is described as follows: Chemical stability in PBS buffer pH 7.4. The format is physicochemical. The settings on record: phosphate-buffered saline, 0.01M PBS pH 7.4, 37° C., read-out: Stability in PBS buffer, pH 7.4 t1/2. On the procedure: Chemical stability of select compounds was evaluated under physiological pH conditions (0.01M Phosphate-Buffered Saline, pH 7.4) for up to 24 h. Stock solutions of each compound (10 mM) were prepared freshly in DMSO. Each compound was incubated at a final concentration of 10 μM (1% DMSO) in pre-heated buffer (0.01M Phosphate-Buffered Saline (PBS), pH 7.4 at 37° C.). The sample solutions were divided into aliquots in glass vials (pre-heated at 37° C.) for each time point. The samples were maintained at 37° C. in the UPLC/MS Autosampler during the study (no shaking). A reference solution of each compound (final concentration: 10 μM at 1% DMSO) in pre-heated CH3CN (37° C.) was prepared from the stock solutions (10 mM in DMSO). The reference solutions were maintained at 37° C. in the UPLC/MS Autosampler during the study (no shaking). An internal standard (100 nM) was added to the sample and reference solutions. For each time point, the samples were analyzed directly by LC/MS without any further sample preparation. The samples were analyzed (triplicate injection) by monitoring the MS trace by Multiple Reaction Monitoring (MRM). The compound concentration (expressed as %) was calculated by dividing the peak area at each time point by the peak area at t=0 min. The reference solution was analyzed at the beginning (t=0 min.), and at the end of the study (t=24 h). The apparent half-lives (t1/2) of the disappearance of compound were calculated by a one-phase decay equation using a non-linear regression of compound concentration versus time.
The analyses were performed on a Waters ACQUITY UPLC/MS TQD system consisting of a TQD (Triple Quadropole Detector) Mass Spectrometer equipped with an Electrospray Ionization interface and a Photodiode Array Detector. The analyses were run on an ACQUITY UPLC BEH C18 1.7 μm 2.1×50 mm column with a VanGuard BEH C18 1.7 μm pre-column at 40° C. The mobile phase was 0.1% HCOOH in H2O (A) and 0.1% HCOOH in CH3CN (B) using a linear gradient: 0-0.2 min.: 5% B, 0.2-2.2 min.: 5-95% B, 2.2-2.3 min.: 95-5% B, 2.3-3 min.: 5% B with flow rate at 0.5 mL/min. […]

The next data set concerns the target h-NAAA (Homo sapiens (Human), UniProt Q02083). Description: UPLC/MS h-NAAA assay. The format is biochemical. Here is the method:
NAAA protein preparation (10 μg) was pre-incubated with various concentrations of test compound or vehicle control in 100 mM NaH2PO4, 100 mM Tri Sodium Citrate Dehydrate, 0.1% Triton-X 100, 3 mM DTT, pH 4.5 for 30 min at 37° C. Duplicate samples were then incubated with 50 μM C17:1 10-cis-heptadecenoylethanolamide (Avanti Polar Lipids, Alabaster, Ala.—USA) at 37° C. for 30 minutes. The reaction was terminated by the addition of 0.2 mL of cold methanol containing 1 nmol of heptadecanoic acid (NuChek Prep, Elysian, Minn.—USA) as internal standard. Samples were then analyzed by UPLC/MS. Heptadecenoic and heptadecanoic acids were eluted on an Acquity UPLC BEH C18 column (50 mm length, 2.1 mm i.d., 1.7 μm pore size, Waters) isocratically at 0.5 mL/min for 1.5 min with a solvent mixture of 95% methanol and 5% water, both containing 0.25% Acetic Acid and 5 mM Ammonium Acetate. The column temperature was 40° C. Electrospray ionization was in the negative mode, capillary voltage was 2.7 kV, cone voltage was 45 V, extractor voltage was 3 V. The source temperature was 150° C. with a desolvation temperature of 400° C. N2 was used as drying gas at a cone flow of 100 L/hour and a desolvation flow of […]. The [M−H]-ion was monitored in the selected-ion monitoring mode (m/z values: heptadecenoic acid 267.37, heptadecanoic acid 269.37). Calibration curves were generated using commercial heptadecenoic acid (NuCheck Prep) Inhibition of NAAA activity was calculated as reduction of heptadecenoic acid in the samples compared to vehicle controls. IC50 values were calculated by non-linear regression analysis of log [concentration]/inhibition curves using GraphPad Prism 5 (GraphPad Software Inc., CA—USA) applying a standard slope curve fitting.

Data set [2] has as its system carrageenan-induced paw edema and hyperalgesia. Nature of the data set: Carrageenan-induced inflammatory responses in mice. The format is in vivo, mouse. On the procedure:
The Methods include the following: Carragenan (1%) was injected into the left hind paw of Swiss albino mice. Paw edema was measured using a plethysmomether. Cutaneous hyperalgesia (thermal) was assesed by the plantar test (see Hargreaves K, et a 1 (1988), Pain 32: 77-88). Compound 6 was administered topically.

The mark [3] stands for this setting: compound 6 30% topical, antagonists 1 μg/paw intraplantar.

Molecules are shown by their SMILES. Entries after “also recorded” stand apart in the source; their conditions may differ.

For orientation: IC50 means the point on the concentration scale where inhibition reaches its midpoint. Read a high IC50 as weaker potency in that assay.

Chain of h-NAAA (Q02083 29-359): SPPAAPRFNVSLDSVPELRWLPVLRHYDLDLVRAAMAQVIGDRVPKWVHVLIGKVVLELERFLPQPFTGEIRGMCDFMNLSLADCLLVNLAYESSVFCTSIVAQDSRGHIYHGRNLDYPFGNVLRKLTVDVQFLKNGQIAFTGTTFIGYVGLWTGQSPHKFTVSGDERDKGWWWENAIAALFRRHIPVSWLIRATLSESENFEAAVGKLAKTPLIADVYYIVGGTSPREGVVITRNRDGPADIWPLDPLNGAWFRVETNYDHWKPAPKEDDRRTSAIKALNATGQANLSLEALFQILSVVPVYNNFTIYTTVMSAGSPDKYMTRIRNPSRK

Regarding `C[C@@H]1OC(=O)[C@@H]1NC(=O)OCCCCCc1ccccc1` [Example 6, 5-phenylpentyl-[(2S,3R)-2-methyl-4-oxooxetan-3-yl]-carbamate], the half-life at 10 μM in data set [1] is 1.7 h. The compound further showed an IC50 against h-NAAA of 7 nM. In data set [2] (setting [3]), the “Anti-inflammatory effect on cutaneous hyperalgesia with receptor antagonists” value is reported as “blocked by PPAR-α antagonists, but not by CB1 or CB2 receptor antagonists” and the “Anti-inflammatory effect on paw edema with receptor antagonists” value is recorded as “blocked by PPAR-α antagonists, but not by CB1 or CB2 cannabinoid receptor antagonists”. Besides, in data set [2] (mice, topical), the Carrageenan-induced paw edema result was “marked anti-inflammatory”. In data set [2] (mice, topical, 90 min after carrageenan), the Carrageenan-induced hyperalgesia result was “dose-dependently reduces carrageenan-induced hyperalgesia; also recorded: anti-hyperalgesic effects”. Moreover, the “Anti-inflammatory effects on paw edema and cutaneous hyperalgesia in mice lacking PPAR-α” value in data set [2] (topical, 90 min after carrageenan) is “absent in mice lacking PPAR-α”.
